{"source": "paper PMC9954146", "about": "“Anti-Leukaemic Activity of Rilpivirine Is Mediated by Aurora A Kinase Inhibition” (Cancers, 2023)", "experiment_in_all_cases": "Kinase panel", "type_in_all_cases": "biochemical", "settings_in_all_cases": "read-out: % Residual Activity", "key": {"[1]": {"target": "T1, AAK1(h) (Homo sapiens, UniProt Q2M2I8)", "T1 construct": "purchased Eurofins (KinaseProfiler)", "method": "(§1) Kinome-wide selectivity of rilpivirine was measured using the kinase screening and profiling service of Eurofins Scientific (Le bois l’Evêque 86600. Celle-Lévescault, France) and Ki values were determined using radioisotope-based assays by Reaction Biology Corporation (Malvern, PA, USA). The experimental details of Eurofin Scientific and Reaction Biology services for relevant assays are available at https://www.eurofinsdiscoveryservices.com/services/in-Vitro-assays/kinases/kinase-profiler (accessed on 7 July 2021) and https://www.reactionbiology.com (accessed on 7 July 2021), respectively. Ki values were estimated from the corresponding IC50 values using the Cheng–Prusoff equation [21] and the Km (ATP) of individual kinase was used for IC50 determination."}, "[2]": {"target": "T2, Blk(h) (Homo sapiens, UniProt P51451)", "T2 construct": "purchased Eurofins (KinaseProfiler)", "method": "as §1"}, "[3]": {"target": "T3, CDK12/cyclinK(h) (Homo sapiens, UniProt Q9NYV4)", "T3 construct": "purchased Eurofins (KinaseProfiler)", "method": "as §1"}, "[4]": {"target": "T4, CDK13/cyclinK(h) (Homo sapiens, UniProt Q14004)", "T4 construct": "purchased Eurofins (KinaseProfiler)", "method": "as §1"}, "[5]": {"target": "T5, CK1γ2(h) (Homo sapiens, UniProt P78368)", "T5 construct": "purchased Eurofins (KinaseProfiler)", "method": "as §1"}, "[6]": {"target": "T6, CK2α2(h) (Homo sapiens, UniProt P19784)", "T6 construct": "purchased Eurofins (KinaseProfiler)", "method": "as §1"}, "[7]": {"target": "T7, CaMKIV(h) (Homo sapiens, UniProt Q16566)", "T7 construct": "purchased Eurofins (KinaseProfiler)", "method": "as §1"}, "[8]": {"target": "T8, CaMKIδ(h) (Homo sapiens, UniProt Q8IU85)", "T8 construct": "purchased Eurofins (KinaseProfiler)", "method": "as §1"}, "[9]": {"target": "T9, CaMKK2(h) (Homo sapiens, UniProt Q96RR4)", "T9 construct": "purchased Eurofins (KinaseProfiler)", "method": "as §1"}, "[10]": {"target": "T10, Cdc7/cyclinB1(h) (Homo sapiens, UniProt O00311)", "T10 construct": "purchased Eurofins (KinaseProfiler)", "method": "as §1"}, "[11]": {"target": "T11, EGFR(L861Q)(h) (Homo sapiens, UniProt P00533, L861Q)", "T11 construct": "purchased Eurofins (KinaseProfiler)", "T11 sequence (P00533 25-1210 L861Q)": "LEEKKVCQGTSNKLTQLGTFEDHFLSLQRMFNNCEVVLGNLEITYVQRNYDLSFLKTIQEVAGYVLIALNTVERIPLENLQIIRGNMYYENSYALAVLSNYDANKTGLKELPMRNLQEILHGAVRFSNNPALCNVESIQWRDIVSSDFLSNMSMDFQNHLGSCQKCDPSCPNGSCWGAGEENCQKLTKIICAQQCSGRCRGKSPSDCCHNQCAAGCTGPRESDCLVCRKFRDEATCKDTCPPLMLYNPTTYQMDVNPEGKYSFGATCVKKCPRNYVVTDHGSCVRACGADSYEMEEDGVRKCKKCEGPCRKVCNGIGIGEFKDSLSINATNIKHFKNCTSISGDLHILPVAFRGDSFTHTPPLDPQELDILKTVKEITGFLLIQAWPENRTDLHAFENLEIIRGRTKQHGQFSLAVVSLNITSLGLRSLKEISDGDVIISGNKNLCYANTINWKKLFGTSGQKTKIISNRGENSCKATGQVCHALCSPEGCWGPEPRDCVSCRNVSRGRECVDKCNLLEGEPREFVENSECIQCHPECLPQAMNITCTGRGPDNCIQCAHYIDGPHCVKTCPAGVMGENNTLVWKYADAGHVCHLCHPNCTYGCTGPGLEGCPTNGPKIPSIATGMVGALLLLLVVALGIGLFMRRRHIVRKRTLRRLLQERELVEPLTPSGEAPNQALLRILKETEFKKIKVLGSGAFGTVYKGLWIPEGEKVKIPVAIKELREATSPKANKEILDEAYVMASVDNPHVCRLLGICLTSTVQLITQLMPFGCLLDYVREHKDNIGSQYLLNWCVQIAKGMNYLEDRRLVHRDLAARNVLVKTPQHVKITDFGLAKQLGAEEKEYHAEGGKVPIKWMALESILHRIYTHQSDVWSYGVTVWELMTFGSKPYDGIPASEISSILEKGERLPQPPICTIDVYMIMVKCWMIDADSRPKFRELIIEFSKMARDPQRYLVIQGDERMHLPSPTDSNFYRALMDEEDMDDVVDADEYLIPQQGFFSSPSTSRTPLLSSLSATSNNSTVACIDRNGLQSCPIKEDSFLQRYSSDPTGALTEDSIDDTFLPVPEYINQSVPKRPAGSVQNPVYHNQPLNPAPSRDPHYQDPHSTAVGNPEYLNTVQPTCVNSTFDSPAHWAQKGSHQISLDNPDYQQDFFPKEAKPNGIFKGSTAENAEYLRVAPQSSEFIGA", "method": "as §1"}, "[12]": {"target": "T12, LATS1(h) (Homo sapiens, UniProt O95835)", "T12 construct": "purchased Eurofins (KinaseProfiler)", "method": "as §1"}, "[13]": {"target": "T13, LIMK1(h) (Homo sapiens, UniProt P53667)", "T13 construct": "purchased Eurofins (KinaseProfiler)", "method": "as §1"}, "[14]": {"target": "T14, MAPK1(h) (Homo sapiens, UniProt P27361)", "T14 construct": "purchased Eurofins (KinaseProfiler)", "method": "as §1"}, "[15]": {"target": "T15, MAPK2(m) (Mus musculus, UniProt P63085)", "T15 construct": "purchased Eurofins (KinaseProfiler)", "T15 sequence (P63085 2-358 limits assumed)": "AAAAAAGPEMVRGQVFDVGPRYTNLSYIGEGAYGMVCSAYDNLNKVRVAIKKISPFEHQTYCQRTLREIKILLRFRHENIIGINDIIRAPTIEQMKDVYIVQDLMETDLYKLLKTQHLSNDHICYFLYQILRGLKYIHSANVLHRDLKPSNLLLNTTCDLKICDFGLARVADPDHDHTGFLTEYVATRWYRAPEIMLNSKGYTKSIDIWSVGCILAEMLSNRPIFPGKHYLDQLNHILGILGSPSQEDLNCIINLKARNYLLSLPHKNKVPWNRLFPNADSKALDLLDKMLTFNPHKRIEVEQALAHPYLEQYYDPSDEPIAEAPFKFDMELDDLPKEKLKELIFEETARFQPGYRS", "method": "as §1"}, "[16]": {"target": "T16, MEK2(h) (Homo sapiens, UniProt P36507)", "T16 construct": "purchased Eurofins (KinaseProfiler)", "method": "as §1"}, "[17]": {"target": "T17, MELK(h) (Homo sapiens, UniProt Q14680)", "T17 construct": "purchased Eurofins (KinaseProfiler)", "method": "as §1"}, "[18]": {"target": "T18, MLK3(h) (Homo sapiens, UniProt Q16584)", "T18 construct": "purchased Eurofins (KinaseProfiler)", "method": "as §1"}, "[19]": {"target": "T19, MLK4(h) (Homo sapiens, UniProt Q5TCX8)", "T19 construct": "purchased Eurofins (KinaseProfiler)", "method": "as §1"}, "[20]": {"target": "T20, MST3(h) (Homo sapiens, UniProt Q9Y6E0)", "T20 construct": "purchased Eurofins (KinaseProfiler)", "method": "as §1"}, "[21]": {"target": "T21, Met(Y1248H)(h) (Homo sapiens, UniProt P08581, Y1230H)", "T21 construct": "purchased Eurofins (KinaseProfiler)", "T21 sequence (P08581 956-1390 Y1230H limits assumed)": "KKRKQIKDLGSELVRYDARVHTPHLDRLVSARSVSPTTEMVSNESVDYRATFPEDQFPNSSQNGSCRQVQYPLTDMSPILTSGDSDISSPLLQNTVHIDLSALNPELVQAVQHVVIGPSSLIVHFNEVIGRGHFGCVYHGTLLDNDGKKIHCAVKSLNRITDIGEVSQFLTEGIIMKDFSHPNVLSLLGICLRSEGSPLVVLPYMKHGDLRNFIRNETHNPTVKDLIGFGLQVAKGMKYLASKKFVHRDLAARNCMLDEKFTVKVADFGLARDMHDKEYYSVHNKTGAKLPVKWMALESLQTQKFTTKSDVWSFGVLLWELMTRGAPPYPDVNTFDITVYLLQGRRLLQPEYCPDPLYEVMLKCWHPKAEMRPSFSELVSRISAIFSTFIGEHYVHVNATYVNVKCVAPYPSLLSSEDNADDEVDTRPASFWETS", "method": "as §1"}, "[22]": {"target": "T22, PI3 Kinase (p110b/p85a)(h) (Homo sapiens, UniProt P42338)", "T22 construct": "purchased Eurofins (KinaseProfiler)", "method": "as §1"}, "[23]": {"target": "T23, PKBγ(h) (Homo sapiens, UniProt Q9Y243)", "T23 construct": "purchased Eurofins (KinaseProfiler)", "method": "as §1"}, "[24]": {"target": "T24, PKCη(h) (Homo sapiens, UniProt P24723)", "T24 construct": "purchased Eurofins (KinaseProfiler)", "method": "as §1"}, "[25]": {"target": "T25, PKCι(h) (Homo sapiens, UniProt P41743)", "T25 construct": "purchased Eurofins (KinaseProfiler)", "method": "as §1"}, "[26]": {"target": "T26, PKR(h) (Homo sapiens, UniProt P19525)", "T26 construct": "purchased Eurofins (KinaseProfiler)", "method": "as §1"}, "[27]": {"target": "T27, PhKγ1(h) (Homo sapiens, UniProt Q16816)", "T27 construct": "purchased Eurofins (KinaseProfiler)", "method": "as §1"}, "[28]": {"target": "T28, Pyk2(h) (Homo sapiens, UniProt Q14289)", "T28 construct": "purchased Eurofins (KinaseProfiler)", "method": "as §1"}, "[29]": {"target": "T29, Ret(V804M)(h) (Homo sapiens, UniProt P07949, V804M)", "T29 construct": "purchased Eurofins (KinaseProfiler)", "method": "as §1"}, "[30]": {"target": "T30, Rsk2(h) (Homo sapiens, UniProt P51812)", "T30 construct": "purchased Eurofins (KinaseProfiler)", "method": "as §1"}, "[31]": {"target": "T31, SAPK2b(h) (Homo sapiens, UniProt Q15759)", "T31 construct": "purchased Eurofins (KinaseProfiler)", "method": "as §1"}, "[32]": {"target": "T32, SIK2(h) (Homo sapiens, UniProt Q9H0K1)", "T32 construct": "purchased Eurofins (KinaseProfiler)", "method": "as §1"}, "[33]": {"target": "T33, SRPK2(h) (Homo sapiens, UniProt P78362)", "T33 construct": "purchased Eurofins (KinaseProfiler)", "method": "as §1"}, "[34]": {"target": "T34, STK33(h) (Homo sapiens, UniProt Q9BYT3)", "T34 construct": "purchased Eurofins (KinaseProfiler)", "method": "as §1"}, "[35]": {"target": "T35, TAO2(h) (Homo sapiens, UniProt Q9UL54)", "T35 construct": "purchased Eurofins (KinaseProfiler)", "method": "as §1"}, "[36]": {"target": "T36, Tie2 (h) (Homo sapiens, UniProt Q02763)", "T36 construct": "purchased Eurofins (KinaseProfiler)", "T36 sequence (Q02763 23-1124)": "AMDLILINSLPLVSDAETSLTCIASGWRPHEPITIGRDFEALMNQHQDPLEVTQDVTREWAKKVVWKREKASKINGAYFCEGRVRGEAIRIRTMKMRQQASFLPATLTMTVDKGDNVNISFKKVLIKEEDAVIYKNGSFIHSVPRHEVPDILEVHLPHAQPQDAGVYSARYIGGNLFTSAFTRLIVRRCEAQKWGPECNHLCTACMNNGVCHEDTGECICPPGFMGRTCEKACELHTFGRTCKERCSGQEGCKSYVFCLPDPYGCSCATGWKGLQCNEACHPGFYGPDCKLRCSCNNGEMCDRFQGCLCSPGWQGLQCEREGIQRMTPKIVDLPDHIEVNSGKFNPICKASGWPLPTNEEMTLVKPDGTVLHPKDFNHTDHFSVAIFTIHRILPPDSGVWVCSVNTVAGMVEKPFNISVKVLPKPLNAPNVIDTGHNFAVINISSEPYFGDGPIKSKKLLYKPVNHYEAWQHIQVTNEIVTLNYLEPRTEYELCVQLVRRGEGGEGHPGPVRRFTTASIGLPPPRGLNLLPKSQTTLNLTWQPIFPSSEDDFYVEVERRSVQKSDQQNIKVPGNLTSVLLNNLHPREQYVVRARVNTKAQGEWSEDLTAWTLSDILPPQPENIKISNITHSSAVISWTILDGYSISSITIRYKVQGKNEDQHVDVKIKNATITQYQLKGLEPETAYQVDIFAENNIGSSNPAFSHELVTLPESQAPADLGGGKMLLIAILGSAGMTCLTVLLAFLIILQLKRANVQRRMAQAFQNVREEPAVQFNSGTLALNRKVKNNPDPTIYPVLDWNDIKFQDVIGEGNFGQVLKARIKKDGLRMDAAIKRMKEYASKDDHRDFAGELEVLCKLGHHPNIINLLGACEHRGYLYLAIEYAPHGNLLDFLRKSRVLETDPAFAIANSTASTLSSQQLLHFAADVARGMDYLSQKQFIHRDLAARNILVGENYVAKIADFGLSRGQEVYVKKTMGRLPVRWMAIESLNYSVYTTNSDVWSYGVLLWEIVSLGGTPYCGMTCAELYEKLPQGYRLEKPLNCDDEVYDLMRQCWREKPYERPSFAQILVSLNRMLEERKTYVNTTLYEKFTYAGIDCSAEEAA", "method": "as §1"}, "[37]": {"target": "T37, cKit(D816V)(h) (Homo sapiens, UniProt P10721, D816V)", "T37 construct": "purchased Eurofins (KinaseProfiler)", "T37 sequence (P10721 26-976 D816V)": "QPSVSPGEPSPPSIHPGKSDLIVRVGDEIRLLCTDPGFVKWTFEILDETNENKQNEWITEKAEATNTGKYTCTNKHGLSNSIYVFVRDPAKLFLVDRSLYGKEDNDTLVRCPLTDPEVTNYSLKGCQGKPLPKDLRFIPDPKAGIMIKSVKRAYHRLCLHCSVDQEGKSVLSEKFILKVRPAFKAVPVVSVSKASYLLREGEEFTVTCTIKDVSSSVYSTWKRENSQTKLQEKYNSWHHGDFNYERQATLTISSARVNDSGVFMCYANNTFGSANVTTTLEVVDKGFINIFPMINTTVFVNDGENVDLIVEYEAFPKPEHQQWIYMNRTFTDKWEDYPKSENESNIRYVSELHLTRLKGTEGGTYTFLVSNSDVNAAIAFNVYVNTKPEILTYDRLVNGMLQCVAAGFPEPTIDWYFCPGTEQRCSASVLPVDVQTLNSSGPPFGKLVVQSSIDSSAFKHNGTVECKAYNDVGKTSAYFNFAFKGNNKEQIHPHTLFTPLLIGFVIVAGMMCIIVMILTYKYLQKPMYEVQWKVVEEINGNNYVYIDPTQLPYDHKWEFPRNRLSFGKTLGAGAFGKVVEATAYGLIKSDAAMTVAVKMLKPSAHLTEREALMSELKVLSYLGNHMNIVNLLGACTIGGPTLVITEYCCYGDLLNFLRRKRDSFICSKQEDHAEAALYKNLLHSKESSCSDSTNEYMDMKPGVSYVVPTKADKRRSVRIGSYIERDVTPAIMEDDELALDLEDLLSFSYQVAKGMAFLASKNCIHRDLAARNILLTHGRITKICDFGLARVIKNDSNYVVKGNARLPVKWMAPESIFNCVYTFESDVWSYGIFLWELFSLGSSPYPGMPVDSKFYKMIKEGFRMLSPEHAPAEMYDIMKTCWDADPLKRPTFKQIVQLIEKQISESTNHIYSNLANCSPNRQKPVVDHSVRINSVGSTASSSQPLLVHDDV", "method": "as §1"}, "[38]": {"target": "T38, p70S6K(h) (Homo sapiens, UniProt P23443)", "T38 construct": "purchased Eurofins (KinaseProfiler)", "T38 sequence (P23443 whole entry)": "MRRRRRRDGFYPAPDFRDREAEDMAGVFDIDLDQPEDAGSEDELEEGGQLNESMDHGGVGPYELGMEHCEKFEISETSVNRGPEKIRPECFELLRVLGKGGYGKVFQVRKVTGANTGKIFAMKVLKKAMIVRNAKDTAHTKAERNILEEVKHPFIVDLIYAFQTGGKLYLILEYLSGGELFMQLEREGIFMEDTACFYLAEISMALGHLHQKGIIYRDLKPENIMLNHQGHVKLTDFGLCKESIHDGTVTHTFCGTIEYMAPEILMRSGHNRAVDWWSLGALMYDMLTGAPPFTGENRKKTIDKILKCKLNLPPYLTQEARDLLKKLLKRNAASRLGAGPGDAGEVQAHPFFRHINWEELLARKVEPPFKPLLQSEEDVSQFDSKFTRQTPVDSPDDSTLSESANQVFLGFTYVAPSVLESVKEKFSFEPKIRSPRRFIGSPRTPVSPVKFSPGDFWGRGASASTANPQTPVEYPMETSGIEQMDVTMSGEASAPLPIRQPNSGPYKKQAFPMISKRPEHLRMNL", "method": "as §1"}}, "data": [{"smiles": "Cc1cc(/C=C/C#N)cc(C)c1Nc1ccnc(Nc2ccc(C#N)cc2)n1", "note": "[rilpivirine, (E)-4-((4-((4-(2-cyanoethenyl)-2,6-dimethylphenyl)amino)pyrimidin-2-yl)amino)benzonitrile]", "values": [{"measurement": "remaining activity at 1 µM", "setting": "[1]", "value": 87, "unit": "%"}, {"measurement": "remaining activity at 1 µM", "setting": "[2]", "value": 73, "unit": "%"}, {"measurement": "remaining activity at 1 µM", "setting": "[3]", "value": 85, "unit": "%"}, {"measurement": "remaining activity at 1 µM", "setting": "[4]", "value": 82, "unit": "%"}, {"measurement": "remaining activity at 1 µM", "setting": "[5]", "value": 90, "unit": "%"}, {"measurement": "remaining activity at 1 µM", "setting": "[6]", "value": 104, "unit": "%"}, {"measurement": "remaining activity at 1 µM", "setting": "[7]", "value": 81, "unit": "%"}, {"measurement": "remaining activity at 1 µM", "setting": "[8]", "value": 100, "unit": "%"}, {"measurement": "remaining activity at 1 µM", "setting": "[9]", "value": 109, "unit": "%"}, {"measurement": "remaining activity at 1 µM", "setting": "[10]", "value": 93, "unit": "%"}, {"measurement": "remaining activity at 1 µM", "setting": "[11]", "value": 35, "unit": "%"}, {"measurement": "remaining activity at 1 µM", "setting": "[12]", "value": 86, "unit": "%"}, {"measurement": "remaining activity at 1 µM", "setting": "[13]", "value": 47, "unit": "%"}, {"measurement": "remaining activity at 1 µM", "setting": "[14]", "value": 90, "unit": "%"}, {"measurement": "remaining activity at 1 µM", "setting": "[15]", "value": 92, "unit": "%"}, {"measurement": "remaining activity at 1 µM", "setting": "[16]", "value": 92, "unit": "%"}, {"measurement": "remaining activity at 1 µM", "setting": "[17]", "value": 56, "unit": "%"}, {"measurement": "remaining activity at 1 µM", "setting": "[18]", "value": 81, "unit": "%"}, {"measurement": "remaining activity at 1 µM", "setting": "[19]", "value": 95, "unit": "%"}, {"measurement": "remaining activity at 1 µM", "setting": "[20]", "value": 93, "unit": "%"}, {"measurement": "remaining activity at 1 µM", "setting": "[21]", "value": 98, "unit": "%"}, {"measurement": "remaining activity at 1 µM", "setting": "[22]", "value": 104, "unit": "%"}, {"measurement": "remaining activity at 1 µM", "setting": "[23]", "value": 86, "unit": "%"}, {"measurement": "remaining activity at 1 µM", "setting": "[24]", "value": 103, "unit": "%"}, {"measurement": "remaining activity at 1 µM", "setting": "[25]", "value": 99, "unit": "%"}, {"measurement": "remaining activity at 1 µM", "setting": "[26]", "value": 92, "unit": "%"}, {"measurement": "remaining activity at 1 µM", "setting": "[27]", "value": 80, "unit": "%"}, {"measurement": "remaining activity at 1 µM", "setting": "[28]", "value": 81, "unit": "%"}, {"measurement": "remaining activity at 1 µM", "setting": "[29]", "value": 92, "unit": "%"}, {"measurement": "remaining activity at 1 µM", "setting": "[30]", "value": 82, "unit": "%"}, {"measurement": "remaining activity at 1 µM", "setting": "[31]", "value": 98, "unit": "%"}, {"measurement": "remaining activity at 1 µM", "setting": "[32]", "value": 57, "unit": "%"}, {"measurement": "remaining activity at 1 µM", "setting": "[33]", "value": 91, "unit": "%"}, {"measurement": "remaining activity at 1 µM", "setting": "[34]", "value": 102, "unit": "%"}, {"measurement": "remaining activity at 1 µM", "setting": "[35]", "value": 59, "unit": "%"}, {"measurement": "remaining activity at 1 µM", "setting": "[36]", "value": 93, "unit": "%"}, {"measurement": "remaining activity at 1 µM", "setting": "[37]", "value": 88, "unit": "%"}, {"measurement": "remaining activity at 1 µM", "setting": "[38]", "value": 108, "unit": "%"}]}]}
